Results taken from US20080021105A1, “Medicine Capable of Inhibiting Activation of Transcription Factor Klf5” (THE UNIVERSITY OF TOKYO, priority 2004, published 2008).

Key:
3T3-KLF5 cells = test: Growth of cells with stable KLF5 (living cell count); assay type: cell-based; conditions: for living cell count: 10^−8 to 10^−5 M, 24 hours, serum-free, FIG. 5
Method: (§1) “3T3-KLF5 cells”, cells in which KLF5 was stably expressed (obtained by subcloning cDNA of KLF5 in a 3×FLAG expression vector to prepare a construct of 3×FLAG-KLF5, then transfecting 3T3 cells with the construct, and culturing the transfectants in the presence of G418 for 2 weeks to clone G418 resistant cells, control cells not containing KLF5 which were prepared in the same manner are referred to as 3T3-mock cells), were seeded in DMEM medium containing 10% FBS and penicillin G/streptomycin at a rate of 1×10^5 cells/well (6-well plate) and cultured overnight at 37° C. in a 5% CO2 incubator, and then the medium was changed to DMEM medium containing penicillin G/streptomycin (serum-free). The cells were added with NIK-333 dissolved in DMSO after 2 hours, cultured for 24 hours, and then counted.

3T3-mock cells = test: Growth of control cells not containing KLF5 (living cell count); assay type: cell-based; conditions: for living cell count: 10^−8 to 10^−5 M, 24 hours, serum-free, FIG. 5
Method: as §1

[1] = tested on: vascular intimal hyperplasia resulted from vascular injury due to the cuff; test: Mouse cuff-induced injury model, Example 3-2 (EVG staining); assay type: in vivo, C57BL6/N mice; conditions: for I/M ratio (mean ± S.D.): EVG staining, 5 weeks after cuff; for ratio of I/M (intima/media) compared with the control group: Example 3-2
Method: Vascular remodeling analysis was performed by using a cuff-induced injury model. Usefulness of this model in relation to vascular remodeling has been reported (Physiol. Genomics, 2, pp.13-30, 2000; Circulation, 104, pp.2716-2721; Circulation, 106, pp.847-853, 2002). For this experiment, 8-week old male C57BL6/N mice (10 animals/group) were used. In an amount of 100 or 200 mg/kg of NIK-333 or 5 or 10 mg/kg of ATRA suspended in soybean oil was orally given once daily every day from 7 days before placement of a cuff (placement of polyethylene tube around blood vessel) to the day before sacrifice. The control group were received soybean oil alone in the same manner. After the 7-day pretreatment, the right femoral artery was covered with PE50 (polyethylene tube 50, outer diameter: 0.965 mm, length: about 1.5 mm) as a cuff. The animals were sacrificed after 5 weeks. Blood was collected, and the cuff was removed under perfusion fixation via puncture of the left ventricle. For pathological evaluation, Elastica van Gieson (EVG) staining was performed. As a result, the ratio of I/M (intima/media) in vascular intimal hyperplasia resulted from vascular injury due to the cuff decreased in the NIK-333 treatment groups compared with the control group.

[2] = tested on: neointimal formation in injured blood vessels; conditions: administered to wild type mice; Nature Medicine, 8, pp.856-863, 2002; cited from earlier work
KLF5 = conditions: reporter assay using cells; Nature Medicine, 8, pp.856-863, 2002; cited from earlier work
[3] = clinical; N. Eng. J. Med., 334, pp.1561-1567, 1996; cited from earlier work
hepatoma recurrence = conditions: clinical; long-term administration over one year; N. Eng. J. Med., 334, pp.1561-1567, 1996; cited from earlier work
[4] = target: T1, transcription factor KLF5 (PDGF-A promoter activation under overexpression of RARγ) (Homo sapiens, UniProt Q13887); test: Luciferase assay of KLF5-dependent PDGF-A promoter activation, COS1 cells cotransfected with KLF5 and RARγ; assay type: cell-based; conditions: Example 1-2
T1 construct: expressed in transfected cells; host or cells: COS1 cells
Method: (§2) COS1 cells were seeded on a 24-well plate at a rate of 5×10^4 cells/well and cultured overnight at 37° C. in a 5% CO2 incubator. Transfection was performed by using TransFast (registered trade name, Promega) transfection reagent according to the protocol attached to the reagent. Specifically, the cells were added with pCAG/KLF5 or empty vector thereof (pCAG), pRSh/RARα, pRSh/RARβ, pRSh/RARγ or empty vector thereof (pRS-RSV) and PDGF-A promoter (−900)-Luciferase and cultured at 37° C. in a 5% CO2 incubator for 48 hours. NIK-333 was dissolved in dimethyl sulfoxide (DMSO); and added at 10^−12 to 10^−5 M. Then, a luciferase assay was performed by using Dual Luciferase Reporter Assay System (Promega). […] This KLF5-dependent PDGF-A promoter activation under overexpression of RARα was inhibited by NIK-333 (Lanes 5 to 12). […] On the other hand, it was noted that the KLF5-dependent PDGF-A promoter activation action under overexpression of RARβ was not affected by NIK-333.

[5] = Influence on mouse testes weight and body weight; assay type: in vivo, C57BL6/N mice
Method: Eight-week old male C57BL6/N mice (10 animals/group) were used. In an amount of 50 mg/kg or 100 mg/kg of NIK-333 dissolved in soybean oil was orally given once daily every day for 5 weeks. The control group received soybean oil alone in the same manner. Body weights were measured after 5 weeks. The animals were sacrificed, then the testes were observed by visual observation, and the testes weights were measured.

[6] = tested on: vascular intimal hyperplasia resulted from vascular injury due to the cuff; test: Mouse cuff-induced injury model, Example 3-1 (HE staining); assay type: in vivo, C57BL6/N mice; conditions: for I/M ratio: HE staining, 5 weeks after cuff
Method: Vascular remodeling analysis was performed by using a cuff-induced injury model. Usefulness of this model in relation to vascular remodeling has been reported (Physiol. Genomics, 2, pp.13-30, 2000; Circulation, 104, pp.2716-2721, 2001; Circulation, 106, pp.847-853, 2002). For this experiment, 8-week old male C57BL6/N mice (10 animals/group) were used. In an amount of 50 mg/kg of NIK-333 dissolved in soybean oil was orally given once a day and every day from 7 days before placement of a cuff (placement of polyethylene tube around blood vessel) to the day before sacrifice. The control group received soybean oil alone in the same manner. After the 7-day pretreatment, the right femoral artery was covered with PE50 (polyethylene tube 50) as a cuff. The animals were sacrificed after 5 weeks. Blood was collected, and the cuff was removed under perfusion fixation via puncture of the left ventricle. For pathological evaluation, hematoxylin/eosin (HE) staining was performed. As a result, the ratio of I/M (intima/media) in vascular intimal hyperplasia resulted from vascular injury due to the cuff decreased in the NIK-333 treatment group compared with the control group.

[7] = target: T2, transcription factor KLF5 (PDGF-A promoter activation under overexpression of RARα) (Homo sapiens, UniProt Q13887); test: Luciferase assay of KLF5-dependent PDGF-A promoter activation, COS1 cells cotransfected with KLF5 and RARα; assay type: cell-based
T2 construct: expressed in transfected cells; host or cells: COS1 cells
Method: COS1 cells were seeded on a 24-well plate at a ratio of 5×10^4 cells/well and cultured at 37° C. in a 5% CO2 incubator for 12 hours. Transfection was performed by using TransFast (registered trade name, Promega) transfection reagent according to the protocol attached to the reagent. Specifically, the cells were added with pCAG/KLF5 or empty vector thereof (pCAG), pCMX/RARα or empty vector thereof (pCMX) and PDGF-A promoter (−900)-Luciferase and cultured at 37° C. in a 5% CO2 incubator for 48 hours. NIK-333 was dissolved in dimethyl sulfoxide (DMSO), and added at 10^−7 to 10^−5 M. Then, a luciferase assay was performed by using Dual Luciferase Reporter Assay System (Promega). In contrast to the transfection of the empty vector for KLF5 and the empty vector for RARα (Lane 1), the transfection of the KLF5 gene alone (Lane 2) and transfection of the RARα gene alone (Lane 3), the transfection of the KLF5 and RARα genes (Lane 4) activated the PDGF-A promoter. This KLF5-dependent PDGF-A promoter activation action under overexpression of RARα was inhibited by NIK-333 (Lanes 5 to 7).
as §2

[8] = target: T3, transcription factor KLF5 (PDGF-A promoter activation under overexpression of RARβ) (Homo sapiens, UniProt Q13887); test: Luciferase assay of KLF5-dependent PDGF-A promoter activation, COS1 cells cotransfected with KLF5 and RARβ; assay type: cell-based; conditions: Example 1-2, FIG. 3
T3 construct: expressed in transfected cells; host or cells: COS1 cells
Method: as §2

[9] = tested on: Fibroblast-derived 3T3 cells; test: Cell growth of fibroblast 3T3 (living cell count); assay type: cell-based
Method: Fibroblast-derived 3T3 cells were seeded on a 24-well plate at a rate of 1×10^6 cells/well and left for 12 hours. Then, NIK-333 and ATRA were added at 10^−7 to 10^−4 M, and living cells were counted 24, 36 and 48 hours later. NIK-333 and ATRA were dissolved in DMSO.

[10] = 50 mg/kg orally once daily for 5 weeks
[11] = 100 mg/kg orally once daily for 5 weeks

T2 sequence (P10276 whole entry partner): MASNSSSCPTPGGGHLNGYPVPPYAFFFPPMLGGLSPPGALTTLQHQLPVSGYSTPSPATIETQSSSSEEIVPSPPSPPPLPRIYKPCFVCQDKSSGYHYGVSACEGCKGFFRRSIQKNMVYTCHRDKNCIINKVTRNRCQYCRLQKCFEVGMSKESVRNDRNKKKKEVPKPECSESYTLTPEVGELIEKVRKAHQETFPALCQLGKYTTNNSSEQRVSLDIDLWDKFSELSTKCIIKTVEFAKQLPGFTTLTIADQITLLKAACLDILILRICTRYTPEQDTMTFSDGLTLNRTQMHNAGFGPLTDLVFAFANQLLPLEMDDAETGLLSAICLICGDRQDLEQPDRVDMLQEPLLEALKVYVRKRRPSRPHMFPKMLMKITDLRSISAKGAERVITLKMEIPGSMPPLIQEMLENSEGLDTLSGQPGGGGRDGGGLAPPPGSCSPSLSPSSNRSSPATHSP
T2 sequence (Q13887 whole entry): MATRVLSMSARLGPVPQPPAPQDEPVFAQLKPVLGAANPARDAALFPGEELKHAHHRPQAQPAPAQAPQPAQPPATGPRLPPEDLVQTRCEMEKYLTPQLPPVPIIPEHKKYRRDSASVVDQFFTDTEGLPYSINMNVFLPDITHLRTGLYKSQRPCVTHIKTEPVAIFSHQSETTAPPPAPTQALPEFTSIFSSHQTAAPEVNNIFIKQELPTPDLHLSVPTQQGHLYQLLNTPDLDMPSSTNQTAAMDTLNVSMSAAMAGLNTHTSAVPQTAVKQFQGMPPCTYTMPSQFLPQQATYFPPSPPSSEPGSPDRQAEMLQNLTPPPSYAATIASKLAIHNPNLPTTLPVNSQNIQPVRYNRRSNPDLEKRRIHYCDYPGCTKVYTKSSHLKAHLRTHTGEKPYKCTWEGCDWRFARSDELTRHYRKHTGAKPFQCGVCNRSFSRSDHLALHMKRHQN
T1 sequence (P13631 whole entry partner): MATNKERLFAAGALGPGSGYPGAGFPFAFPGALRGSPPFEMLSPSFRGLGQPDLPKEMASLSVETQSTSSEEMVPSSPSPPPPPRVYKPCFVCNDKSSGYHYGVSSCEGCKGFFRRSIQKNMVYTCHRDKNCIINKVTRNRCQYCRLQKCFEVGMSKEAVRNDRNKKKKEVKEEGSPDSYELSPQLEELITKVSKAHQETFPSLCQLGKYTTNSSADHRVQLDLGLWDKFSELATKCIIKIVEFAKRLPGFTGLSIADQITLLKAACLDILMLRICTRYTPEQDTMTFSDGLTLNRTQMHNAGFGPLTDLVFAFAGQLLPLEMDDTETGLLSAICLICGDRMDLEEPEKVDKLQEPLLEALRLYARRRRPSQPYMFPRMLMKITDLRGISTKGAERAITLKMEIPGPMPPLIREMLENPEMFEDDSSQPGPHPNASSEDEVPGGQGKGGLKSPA
T1 sequence (Q13887 whole entry): as the sequence (Q13887 whole entry) above
T3 sequence (Q13887 whole entry): as above

CC1=C(/C=C/C(C)=C/C=C/C(C)=C/C(=O)O)C(C)(C)CCC1 [ATRA, all-trans-retinoic acid, reference compound]
living cell count (3T3-KLF5 cells; 3T3-KLF5 cells): decrease of the living cell count was observed in a concentration-dependent manner
living cell count (3T3-mock cells): decrease of the living cell count was observed in a concentration-dependent manner
I/M ratio (mean ± S.D.) ([1]; 5 mg/kg orally once daily): 0.64 ± 0.3
I/M ratio (mean ± S.D.) ([1]; 10 mg/kg orally once daily): 0.63 ± 0.2
ratio of I/M (intima/media) compared with the control group ([1]; ATRA 5 or 10 mg/kg): no difference was observed

CC1(C)CCC(C)(C)c2cc(NC(=O)c3ccc(C(=O)O)cc3)ccc21 [Am80]
neointimal formation in injured blood vessels [2]: inhibited
transcription of PDGF-A induced by KLF5 (KLF5): inhibited

CC(C)=CCC/C(C)=C/CC/C(C)=C/C=C/C(C)=C/C(=O)O [NIK-333, (2E,4E,6E, 10E)-3,7,11,15-Tetramethyl-2,4,6,10,14-hexadecapentanoic acid]
liver function failure and adverse side effects observed with other retinoids [3]: does not substantially induce
recurrence of hepatoma after radical treatment (hepatoma recurrence): significantly inhibited
KLF5-dependent activation of the PDGF-A promoter under overexpression of RARγ ([4]; COS1 cells, FIG. 3): inhibited
inhibitory action compared with ATRA ([4]; RARγ): more potent than that of ATRA
Body weight [5, 10]: 20.8 ± 0.3 g
Weight of both testes [5, 10]: 0.1465 ± 0.0043 g
Body weight [5, 11]: 21.2 ± 0.3 g
Weight of both testes [5, 11]: 0.1360 ± 0.0026 g
body weight compared with the control group ([5]; 50 or 100 mg/kg, 5 weeks): no difference was observed
testes weight compared with the control group ([5]; 50 or 100 mg/kg, 5 weeks): no difference was observed
visual observation of the testes ([5]; 50 or 100 mg/kg, 5 weeks): no abnormal finding was observed
action on living cell count compared with ATRA (3T3-KLF5 cells; 3T3-KLF5 cells): more potent than that of ATRA
living cell count (3T3-KLF5 cells; 3T3-KLF5 cells): decrease of the living cell count was observed in a concentration-dependent manner
survival rate of 3T3-KLF5 cells versus 3T3-mock cells (3T3-KLF5 cells; after the addition of NIK-333): the survival rate of the 3T3-KLF5 cells was higher than that of the 3T3-mock cells
I/M ratio ([6]; 50 mg/kg orally once a day): 0.87 ± 0.29
I/M ratio ([6]; 100 mg/kg): 0.75 ± 0.31
ratio of I/M (intima/media) compared with the control group ([6]; NIK-333 treatment group, Example 3-1): decreased
action on living cell count compared with ATRA (3T3-mock cells): more potent than that of ATRA
living cell count (3T3-mock cells): decrease of the living cell count was observed in a concentration-dependent manner
KLF5-dependent PDGF-A promoter activation action under overexpression of RARα ([7]; Example 1-1, COS1 cells, 10^−7 to 10^−5 M, FIG. 1): inhibited
concentration from which the action showed concentration dependency ([7]; Example 1-1, COS1 cells, RARα): ≥ 10^−7 M
KLF5-dependent PDGF-A promoter activation under overexpression of RARα ([7]; Example 1-2, COS1 cells, 10^−12 to 10^−5 M, FIG. 2): inhibited
concentration from which the inhibitory action was significantly concentration-dependent ([7]; Example 1-2, COS1 cells, RARα): ≥ 10^−10 M
inhibitory action compared with ATRA ([7]; Example 1-2, RARα): more potent than that of all-trans-retinoic acid (ATRA)
KLF5-dependent PDGF-A promoter activation action under overexpression of RARβ [8]: not affected
concentration from which cell growth was inhibited in a concentration dependent manner ([9]; 3T3 cells): ≥ 10^−7 M
cell growth inhibitory action compared with ATRA ([9]; 3T3 cells, FIG. 4): more potent than that of ATRA
cell growth of 3T3 cells (living cell count) ([9]; 10^−7 to 10^−4 M, 24, 36 and 48 hours, FIG. 4): inhibited cell growth in a concentration dependent manner
I/M ratio (mean ± S.D.) ([1]; 100 mg/kg orally once daily): 0.38 ± 0.2
I/M ratio (mean ± S.D.) ([1]; 200 mg/kg orally once daily): 0.09 ± 0.1
ratio of I/M (intima/media) compared with the control group ([1]; NIK-333 100 or 200 mg/kg): decreased
